Experimental data published in patent US20240301319A1, “PERFUMING COMPOSITIONS” (FIRMNICH SA, priority 2017, published 2024).
Counter-ions that a name gives are not always drawn. One block for each molecule: values may come before it.

Tests used:
[1] = Odor threshold and odor value of perfuming compounds (Tables 4 to 10)
[2] = Volatility of perfuming compounds (Tables 4 to 10), with top/middle/bottom note type; format: physicochemical
How it was run: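 Volatility is expressed in μg/l in air. Top notes are 70,000 to 100 μg/l, middle notes 99 to 50 μg/l, and bottom notes 49 to 0.1 μg/l. Compounds are grouped by olfactive family: watery, green, fruity, citrus, sweet, gourmand and woody.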

[3] = perfuming compounds having a green note
[4] = Table 6, perfuming compounds having a fruity note, note type by volatility
[5] = Table 7, citrus note, top, middle or bottom note
[6] = note type (Top/Middle/Bottom) by volatility, perfuming compounds having a green note
[7] = Table 6, perfuming compounds having a fruity note
[8] = Table 8, perfuming compounds having a sweet note
[9] = Table 8, perfuming compounds having a sweet note, note type by volatility
[10] = Table 10, perfuming compounds having a woody note, note type by volatility
[11] = Table 7, citrus note, equals volatility divided by odor threshold

Molecule: C=CC(C)(CCC=C(C)C)OC(C)=O (racemic) [(+−)-1,5-DIMETHYL-1-VINYL-4-HEXENYL ACETATE]
Odor Threshold (μg/l air) ([1]; Table 7, citrus note): 7.40E−02 μg/l air
Odor Threshold (μg/l air) [1, 3]: 7.40E−02 μg/l air
Type [2, 4]: TOP (perfuming compounds having a volatility ranging from 70,000 to 100 μg/l in air are referred to as “top notes”)
Type [2, 5]: Top
Type [2, 6]: Top
Volatility (μg/l air) [2, 3]: 339.21 μg/l air

Molecule: CCCCC[C@@H]1OC(=O)C[C@H]1C (racemic) [(+−)-TRANS-3-METHYL-4-NONANOLIDE]
Odor Threshold [1, 7]: 8.33E−04 μg/l air
Odor Value [1, 7]: 2.53E+04
Odor Threshold [1, 8]: 8.33E−04 μg/l air
Odor Value [1, 8]: 2.53E+04
Odor Threshold ([1]; Table 9, gourmand note): 8.33E−04 μg/l air
Volatility [2, 7]: 21.05 μg/l air
Type [2, 4]: Bottom
Volatility [2, 8]: 21.05 μg/l air
Type [2, 9]: Bottom
Volatility ([2]; Table 9, gourmand note): 21.05 μg/l air
Type ([2]; Table 9, perfuming compounds having a gourmand note, note type by volatility): Bottom

Molecule: CC(C)[C@@H]1CC[C@@H](C)CC1=NO
Odor Threshold (μg/l air) [1, 3]: 5.52E−05 μg/l air
Type [2, 6]: Bottom
Volatility (μg/l air) [2, 3]: 22.29 μg/l air

Molecule: C=C1C2CCC(C)(OCC)C1CCC2(C)C (racemic)
Odor Threshold ([1]; Table 10, woody note): 1.37E−01 μg/l air
Type [2, 10]: Top
Volatility ([2]; Table 10, woody note): 135.00 μg/l air

Molecule: 3-(4-ETHYLPHENYL)-2,2-DIMETHYLPROPANAL (A) + 3-(2-ETHYLPHENYL)-2,2-DIMETHYLPROPANAL (B)
Odor Threshold (μg/l air) ([1]; Table 4, watery note): 5.33E−03 μg/l air
Odor Value ([1]; Table 4, watery note, equals volatility divided by odor threshold): 9.14E+03
Volatility (μg/l air) ([2]; Table 4, watery note): 48.69 μg/l air
Type ([2]; Table 4, watery note, top, middle or bottom note): bottom (perfuming compounds having a volatility ranging from 49 to 0.1 μg/l in air are referred to as “bottom notes”)

Molecule: CC(OC=O)C1CCCC(C)(C)C1 (stereo not drawn) [1-(3,3-DIMETHYL-1-CYCLOHEXYL)ETHYL FORMATE]
Odor Threshold (μg/l air) ([1]; Table 7, citrus note): 2.05E−01 μg/l air
Odor Value [1, 11]: 5.50E+03
Volatility (μg/l air) ([2]; Table 7, citrus note): 1129.46 μg/l air
Type [2, 5]: Top

Molecule: CC(C)=CCCC(C)CCOCC=O (racemic)
Odor Threshold (μg/l air) ([1]; Table 7, citrus note): 8.95E−04 μg/l air
Odor Value [1, 11]: 5.26E+03
Volatility (μg/l air) ([2]; Table 7, citrus note): 4.70 μg/l air
Type [2, 5]: Bottom

Molecule: CC(=O)OC(c1ccccc1)C(Cl)(Cl)Cl (racemic) [(+−)-2,2,2-TRICHLORO-1-PHENYLETHYL ACETATE]
Odor Threshold [1, 7]: 1.15E−03 μg/l air
Odor Value [1, 7]: 1.04E+04
Odor Threshold (μg/l air) ([1]; Table 7, citrus note): 1.15E−03 μg/l air
Odor Value [1, 11]: 1.04E+04
Volatility [2, 7]: 11.96 μg/l air
Type [2, 4]: Bottom
Volatility (μg/l air) ([2]; Table 7, citrus note): 11.96 μg/l air
Type [2, 5]: Bottom

Further lines, with some results ahead:

Volatility [2, 8]: 5525.83 μg/l air
Type [2, 9]: Top
Molecule: CC=CC(=O)C(C)CC (stereo not drawn) [5-METHYL-2-HEPTEN-4-ONE]
Odor Threshold [1, 8]: 7.62E−07 μg/l air
Odor Value [1, 8]: 7.26E+09

Type [2, 6]: Top
Volatility (μg/l air) [2, 3]: 421.15 μg/l air
Molecule: CCC(C)(O)CCCC(C)C (racemic)
Odor Threshold (μg/l air) [1, 3]: 3.45E−03 μg/l air

Type [2, 6]: Top
Volatility (μg/l air) [2, 3]: 2483.93 μg/l air
Molecule: CC(C)=CC1CC(C)CCO1 (stereo not drawn)
Odor Threshold (μg/l air) [1, 3]: 8.77E−04 μg/l air

Volatility [2, 7]: 33.88 μg/l air
Type [2, 4]: Bottom
Type [2, 10]: Bottom
Volatility ([2]; Table 10, woody note): 33.88 μg/l air
Molecule: C/C=C(\C)C(=O)OCc1ccccc1 [BENZYL (E)-2-METHYL-2-BUTENOATE]
Odor Threshold [1, 7]: 3.07E−04 μg/l air
Odor Value [1, 7]: 1.11E+05
Odor Threshold ([1]; Table 10, woody note): 3.07E−04 μg/l air

Type [2, 6]: Top
Volatility (μg/l air) [2, 3]: 687.75 μg/l air
Molecule: CCCC(=NO)C(C)C [2-METHYL-3-HEXANONE OXIME]
Odor Threshold (μg/l air) [1, 3]: 4.81E−04 μg/l air

Type [2, 6]: Top
Volatility (μg/l air) [2, 3]: 632.43 μg/l air
Molecule: CC/C=C\CC/C=C/C=O [(2E,6Z)-2,6-NONADIENAL]
Odor Threshold (μg/l air) [1, 3]: 1.46E−04 μg/l air
